# Reference: US20250327133A1, “USE OF SRE-PTPRZ1 INHIBITOR IN PREPARATION OF DRUG FOR TREATING SQUAMOUS CELL CARCINOMA” (WEST CHINA HOSPITAL, SICHUAN UNIVERSITY, priority 2022, published 2025)
# pIC50: −log10 of the molar value.
# Assays:
# [1] = system: human Lung-LUSC cell lines; experiment: CCK8 cell proliferation, MY33-3, Lung-LUSC cell lines; assay type: cell-based; settings: 7 human Lung LUSC cell lines; 72 hours
# Method: (§1) The CCK8 method was used to detect the effect of PTPRZ1 inhibitor MY33-3 on cell proliferation. 7 strains of human Lung-LUSC cells, one strain of human lung adenocarcinoma cell, one strain of human normal lung epithelial cell BEAS-2B, and one strain of PTPRZ1 high expressing cell line U251 (high expression of PTPRZ1 gene in glioma cells) were used in this experiment for detection. Each cell line was inoculated into a 96-well plate at a density of 6000 cells/well, cultured for 24 hours, and then 100 μL of MY33-3 working solution was added to the test wells at final concentrations of 0 μM, 1 μM, 2 μM, 4 μM, 8 μM, 16 μM, 32 μM, and 64 μM, while 100 μL of medium was added to the blank control well. After 72 hours of drug treatment, 20 μL of CCK8 was added in proportion and incubated for 1 hour. The absorbance value was measured at 450 nm, and the IC50 values of MY33-3 against different cells were plotted.
# [2] = system: human Lung LUAD cell line; experiment: CCK8 cell proliferation, MY33-3, lung adenocarcinoma cell line; assay type: cell-based; settings: one human Lung LUAD cell line; 72 hours
# Method: as §1
# [3] = system: human normal lung epithelial cell line BEAS-2B; experiment: CCK8 cell proliferation, MY33-3, BEAS-2B; assay type: cell-based; settings: 72 hours
# Method: as §1
# [4] = system: PTPRZ1 glioma cell line U251; experiment: CCK8 cell proliferation, MY33-3, U251; assay type: cell-based; settings: Homo sapiens, U-251, 72 hours
# Method: as §1
# [5] = system: human Lung-LUSC (H520) cells; experiment: Subcutaneous tumor formation in nude mice (H520); assay type: in vivo, BALB/c-nu mice; settings: for tumor size compared with the model group / tumor volume compared with the model group: after 21 days of administration
# Method: At the animal level, the method of subcutaneous tumor formation in nude mice was used to verify the therapeutic effect of the inhibitor MY33-3 on the tumor formation of human Lung-LUSC (H520) cells. Firstly, 30 of 4W BALB/c-nu mice were purchased from GemPharmatech and acclimated for 3 days. Then, 150 μL of pre-prepared H520 cells was injected subcutaneously into the right forelimb of nude mice at 8×10^6 cells/mouse. After 7 days, the tumor growth of each nude mouse was observed, and the mice were grouped and received drugs when the tumor grew to 100 mm^3. Mice were divided into the blank group, the model group, the low-dose group, and the high-dose group, with 7 mice in each group. Meanwhile, the inhibitor MY33-3 was administered at doses of 20 mg/kg (low-dose group) and 100 mg/kg (high-dose group) once every 2 days, and the changes in tumor growth were recorded using a vernier caliper. Then, after 21 days of administration, samples were collected, and the therapeutic effect of the inhibitor MY33-3 on human Lung-LUSC cells was evaluated using indicators such as tumor volume, tumor weight, and nude mouse weight.
# H520 cells = experiment: CCK8 cell survival, MY-10, H520; assay type: cell-based, human; settings: 72 hours
# Method: (§2) The CCK8 method was used to detect the effect of the PTPRZ1 inhibitor MY-10 on cell proliferation. 3 human Lung-LUSC cells and one PTPRZ1 high expression cell line U251 (high expression of PTPRZ1 gene in glioma cells) were used in this experiment for detection. Each cell line was inoculated into a 96-well plate at a density of 5000 cells/well, cultured for 24 hours, and then 100 μL of MY-10 working solution was added at final concentrations of 0 μM, 1 μM, 2 μM, […], 6 μM, and […] to the test wells, while 100 μL of medium was added to the blank control well. After 72 hours of drug treatment, 20 μL of CCK8 was added in proportion, followed by incubating for 1 h. The absorbance value was measured at 450 nm, and the survival rates of MY-10 against different Lung-LUSC cells were plotted.
# H1703 = experiment: CCK8 cell survival, MY-10, H1703; assay type: cell-based, human; settings: 0-8 μM, 72 hours
# Method: as §2
# LK-2 = experiment: CCK8 cell survival, MY-10, LK-2; assay type: cell-based, human; settings: 0-8 μM, 72 hours
# Method: as §2
# [6] = system: PTPRZ1 glioma cell line (U251); experiment: CCK8 cell survival, MY-10, U251; assay type: cell-based; settings: 0-8 μM, 72 hours
# Method: as §2
# human Lung-LUSC cells = experiment: CCK8 cell growth inhibition by NAZ2329, Lung-LUSC cells; assay type: cell-based; settings: 5-70 μM, 72 hours
# Method: (§3) The CCK8 method was used to detect the inhibition rate of PTPRZ1 inhibitor NAZ2329 on cell growth. 5 strains of human Lung-LUSC cells, one strain of human normal lung epithelial cell BEAS-2B, and one strain of highly expressed PTPRZ1 cell line U251 (High expression of PTPRZ1 gene in glioma cells) were used in this experiment for detection. Each cell line was inoculated into a 96-well plate at a density of 8000 cells/well, and cultured for 18 h. Then, 100 μL of NAZ2329 solution was added to the test wells at final concentrations of 5 μM, 10 μM, 20 μM, 30 μM, 40 μM, 50 μM, 60 μM, and 70 μM, while 100 μL of medium was added to the blank control well. After 72 hours of drug treatment, 20 μL of CCK8 was added in proportion and incubated for 2 h. The absorbance value was measured at 450 nm and the inhibition rate curve was plotted.
# [7] = system: human normal lung epithelial cell BEAS-2B; experiment: CCK8 cell growth inhibition by NAZ2329, BEAS-2B; assay type: cell-based; settings: 5-70 μM, 72 hours
# Method: as §3
# glioma cell line U251 = experiment: CCK8 cell growth inhibition by NAZ2329, U251; assay type: cell-based; settings: 5-70 μM, 72 hours
# Method: as §3
structure (smiles),measurement,setting,value
FC(F)(F)Sc1ccc(CNCc2ccc(SC(F)(F)F)cc2)cc1 [MY33-3],pIC50,[1],> 4.80
same,pIC50,[2],4.60
same,pIC50,[3],4.55
same,pIC50,[4],4.48
same,inhibitory effect on tumorigenicity of H520 cells,[5]; dose of 20 mg/kg,good inhibitory effect
same,weight of nude mice versus model group,[5]; high-dose group 100 mg/kg,no significant difference
same,tumor size compared with the model group,[5]; high-dose group 100 mg/kg once every 2 days,significantly decreased
same,tumor volume compared with the model group,[5]; high-dose group 100 mg/kg,more significantly decreased
same,weight of nude mice versus model group,[5]; low-dose group 20 mg/kg,no significant difference
same,tumor size compared with the model group,[5]; low-dose group 20 mg/kg once every 2 days,significantly decreased
same,tumor volume compared with the model group,[5]; low-dose group 20 mg/kg,more significantly decreased
FC(F)(F)Sc1ccc(CCCOc2ccc(SC(F)(F)F)cc2)cc1 [MY-10],inhibitory effect with increasing concentrations,"H520 cells; H520, 0-8 μM",significant inhibitory effects
same,pIC50,"H520 cells; Homo sapiens, NCI-H520, H520 cells, read-out: IC50 (survival rate)",~5.40
same,inhibitory effect with increasing concentrations,H1703,significant inhibitory effects
same,inhibitory effect with increasing concentrations,LK-2,significant inhibitory effects
same,inhibitory effect with increasing concentrations,[6],significant inhibitory effects
CCOc1ccc(C(F)(F)F)cc1CSc1ccsc1C(=O)NS(=O)(=O)c1ccccc1 [NAZ2329],growth inhibition rate on cell growth,"human Lung-LUSC cells; 4 strains of Lung-LUSC cells, compared with BEAS-2B and U251",significantly higher than that of human normal lung epithelial cells BEAS-2B and glioma cell line U251
same,cell growth with increasing treatment concentration,human Lung-LUSC cells; Lung-LUSC cells,inhibited
same,cell growth with increasing treatment concentration,[7],inhibited
same,cell growth with increasing treatment concentration,glioma cell line U251,inhibited
